Laboratory results as given in patent US4564641A, “Substituted 1-oxo-2-phenyl-2-(2-alkylaminoethyl)-1,2,3,4-tetrahydronaphthalenes, their preparation and their use” (BASF Aktiengesellschaft, priority 1982, dated 1986).
Structures can show the parent of a compound that is named as a salt. Where two headings read alike, the source gives them in different places.

Test system: reserpine-induced hypothermia
Experiment: inhibition of reserpine-induced hypothermia in mice (antidepressant action)
Type: in vivo, mice (Swiss strain)
Details: for ED50: Mus musculus; for ED50 / ED50 (antidepressant action, dose which inhibits the reserpine-induced hypothermia by 50%): body temperature two hours after reserpine
Description: The antidepressant action of the substances according to the invention was investigated using the following model:
2.15 mg/kg of reserpine administered subcutaneously to male mice (Swiss strain) weighing 20-26 g lowers the body temperature by an average of 3° C., measured two hours after administration of the reserpine and at an ambient temperature of 20°-22° C. Antidepressants inhibit this hypothermia, the inhibition being dose-dependent. The test substances are administered orally, 60 minutes before the administration of reserpine.
The dose which inhibits the reserpine-induced hypothermia by 50%, ie. the ED50, is determined from the linear regression between log dose (mg/kg) and relative decrease in hypothermia.
In some cases, the activity is substantially greater than that of imipramine (for Example 18c, by a factor of 72).

[1] = male mice (Swiss strain), oral, 60 minutes before 2.15 mg/kg reserpine s.c., read-out: ED50 (antidepressant action, dose which inhibits the reserpine-induced hypothermia by 50%)
[2] = male mice (Swiss strain), oral, 60 minutes before 2.15 mg/kg reserpine s.c.
[3] = po, read-out: ED50 (antidepressant action, dose which inhibits the reserpine-induced hypothermia by 50%), male mice (Swiss strain), oral, 60 minutes before 2.15 mg/kg reserpine s.c.

SMILES | ED50 [1] | further results
CN(C)CCC1(c2cccc(Cl)c2)CCc2ccccc2C1=O.Cl (centres unmarked) [Example 8, 1-oxo-2-(3-chlorophenyl)-2-(2-dimethylaminoethyl)-1,2,3,4-tetrahydronaphthalene hydrochloride] | 5.2 mg/kg | 
CN(C)CCC1(c2ccccc2)CCc2ccccc2C1=O (racemic) [Example 18c, 1-oxo-2-phenyl-2-(2-dimethylaminoethyl)-1,2,3,4-tetrahydronaphthalene] |  | ED50 (antidepressant action, dose which inhibits the reserpine-induced hypothermia by 50%) [2]: 0.09 mg/kg; activity greater than that of imipramine, by a factor of (ratio of ED50 to imipramine, oral, mice): 72
CN(C)CCC1(c2ccccc2)CCc2c(Cl)cccc2C1=O (centres unmarked) [Example 12, 1-oxo-5-chloro-2-phenyl-2-(2-dimethylaminoethyl)-1,2,3,4-tetrahydronaphthalene] | 0.9 mg/kg | 
CN(C)CCCN1c2ccccc2CCc2ccccc21 [imipramine, reference compound] |  | ED50 [3]: 6.8 mg/kg
CN(C)CCC1(c2ccc(F)cc2)CCc2ccccc2C1=O.Cl (centres unmarked) [Example 5, 1-oxo-2-(4-fluorophenyl)-2-(2-dimethylaminoethyl)-1,2,3,4-tetrahydronaphthalene hydrochloride] | 4.9 mg/kg | 
COc1cccc(C2(CCN(C)C)CCc3ccccc3C2=O)c1.O=C(O)C(=O)O (centres unmarked) [Example 14, 1-oxo-2-(3-methoxyphenyl)-2-(2-dimethylaminoethyl)-1,2,3,4-tetrahydronaphthalene hydrogen oxalate] | 2.3 mg/kg | 
Cc1cccc(C2(CCN(C)C)CCc3ccccc3C2=O)c1 (centres unmarked) [Example 2, 1-oxo-2-(3-tolyl)-2-(2-dimethylaminoethyl)-1,2,3,4-tetrahydronaphthalenehydrochloride] | 6.8 mg/kg | 
CN(C)CCC1(c2ccccc2)CCc2ccccc2C1=O (centres unmarked) [Example 1, 1-oxo-2-phenyl-2-(2-dimethylaminoethyl)-1,2,3,4-tetrahydronaphthalene] |  | ED50 [3]: 0.14 mg/kg
CN(C)CCC1(c2ccccc2)CCc2ccccc2C1=O (racemic) [Example 18a, 1-oxo-2-phenyl-2-(2-dimethylaminoethyl)-1,2,3,4-tetrahydronaphthalene] |  | ED50 (antidepressant action, dose which inhibits the reserpine-induced hypothermia by 50%) [2]: 0.85 mg/kg
CN(C)CCC1(c2ccc(Cl)cc2)CCc2ccccc2C1=O (centres unmarked) [Example 3, 1-oxo-2-(4-chlorophenyl)-2-(2-dimethylaminoethyl)-1,2,3,4-tetrahydronaphthalene] | 4.6 mg/kg | 
